The source of these data is patent publication US9415051B1, “Use of pemirolast” (priority 2015, dated 2016).

Structures are written as SMILES. Like-named read-outs stand apart in the source and are kept apart here.

Data set [1] is described as follows: Single and multiple-dose open safety and tolerability study, pharmacokinetics of pemirolast potassium tablets in humans. In kind it is in vivo, human. The conditions noted are these: for Cmax: human, plasma; for Cmax / Cmax, mean: multiple dose, healthy male subjects, N = 6. As to the method:
This study comprised 18 healthy male subjects, 18-45 years of age, and was a single and multiple-dose, open study assessing the safety and tolerability of pemirolast potassium tablets (10 mg, Ulgixal™ tablets) with the doses 10, 30 and 50 mg (containing 8.5, 25.5 and 42.5 mg pemirolast free acid, respectively) b.i.d. (6 subjects in each dose group). The subjects received a single dose on the first day, then b.i.d. for three days and a single dose on the fifth day. The study was performed at the Berzelius Clinical Research Center AB in Linköping, Sweden. All laboratory pharmacokinetic analyses were performed by Quintiles AB, Uppsala, Sweden. Pharmacokinetic calculations were performed by Pharm Assist Sweden AB, Uppsala, Sweden. Mean Cmax data after multiple dosing are shown in and Table 1, and mean plasma concentrations over time on Day 5 are shown in FIG. 1.

Data set [2] addresses hERG potassium channel (Homo sapiens, UniProt Q12809). As to the method:
This study was performed by PhysioStim, France, a GLP compliant facility.
The effects of pemirolast on hERG currents in HEK-293 cells stably expressing the hERG potassium channel were studied using patch-clamp technique.

For data set [3] the following is noted: dog, in vivo. Here is the method: The study, including all analyses and calculations, were performed by WIL Research, France, in compliance with Good Laboratory Practices (GLP).
Data set [4] is described as follows: Toxicokinetics of pemirolast in the dog, 7-day oral repeated dose. Further details: species or system dog (Beagles). The conditions noted are these: Beagle, in vivo, 75 mg/kg daily oral, 7th day. An excerpt:
There were no major differences in kinetics between males and females.

Data set [5] deals with airway hyperresponsiveness to mannitol challenge in asthma patients. The experiment in a line: Clinical trial: mannitol challenge test (PD15 for mannitol) in asthma patients. In kind it is in vivo, human. The conditions noted are these: for Mannitol dose tolerated (PD15) at the placebo visit; reduction in AHR/BHR: n=4, FIG. 2. Here is the method:
This study comprised male and female asthma patients (18 to 46 years of age) with a positive asthma test (as determined by a mannitol challenge test (vide infra) performed within 15 days prior to enrolment at the first screening visit, Visit 1).
It was a double-blind, randomized, placebo-controlled, cross-over trial assessing the efficacy of orally administered single doses of placebo and 40 mg and 400 mg of pemirolast (immediate release tablets containing pemirolast sodium hemihydrate, as well as microcrystalline cellulose, mannitol, copovidone fine, croscarmellose sodium, anhydrous colloidal silica and magnesium stearate) in patients challenged with mannitol inhalation as described below.
The patients were exposed to the different treatments at three separate hospital visits at least 2 (mean 6.8, median 6) days apart. The data reported in FIGS. 2 and 3 below represent the patients that received placebo treatment at the first visit (n=8) or placebo at the second visit (after 40 mg at the first visit (n=4) or after 400 mg at the first visit (n=4)).
All doses were administered 3 hours before initiation of the mannitol challenge test to ensure peak plasma concentrations of pemirolast when the mannitol challenge was performed (blood samples for analysing plasma concentrations of pemirolast were collected 3 hours after drug administration).
There were 5 visits during the trial: A screening visit (Visit 1, within 15 days before Visit 2), three visits for treatment with Investigational Medicinal Products (IMP; pemirolast 40 or 400 mg, or placebo) (Visit 2-4, spaced at least 2 days apart), and a final follow-up visit by telephone (Visit 5, at least 2, but less than 4 days after Visit 4 and within 30 days of Visit 2). […]

The subject of data set [6] is 11β-PGF2α (mast cell biomarker prostaglandin D2 metabolite). Kind of data set: Clinical trial: urinary excretion of PGD2 metabolite 11β-PGF2α (EIA). Type of data set: in vivo, human. Conditions: patients treated at least 3 days before with 40 mg or 400 mg, 4+4 patients, FIG. 3. As to the method: A secondary endpoint in the study was to analyse changes in urinary excretion of a metabolite (11β-prostaglandin (PG) F2α) of the lung mast cell mediator/biomarker prostaglandin D2. 11β-PGF2α analysis was performed in unextracted urine samples using a validated enzyme immunoassays (EIA) kit from Cayman Chemical, Ann Arbor, Mich., USA (Item no 516521). […]

Data set [7] is described as follows: Later pharmacokinetic studies in healthy volunteers, multiple doses b.i.d. for three and a half days. In kind it is in vivo, human. The conditions noted are these: for Cmax: human, plasma, oral, read-out: Actual Cmax. An excerpt: Later pharmacokinetic studies in healthy volunteers (7 to 8 in each group) have shown that actual Cmax values for various multiple doses (b.i.d. for three and a half days) are as follows: […]

Data set [8] has as its system asthma patients. Kind of data set: Clinical trial: adverse events, vital signs and laboratory tests. In kind it is in vivo, human. The conditions noted are these: single oral doses of 40 mg and 400 mg.
The subject of data set [9] is airway or bronchial hyperresponsiveness. Conditions: 50 mg doses twice daily in humans (Kemp et al 1992); cited from earlier work.
The subject of data set [10] is asthma patients. Kind of data set: Clinical trial: FEV1 before and 3 hours after treatment. In kind it is in vivo, human. Conditions: 3 hours after an oral dose of 400 mg; 3.58±0.86 L before treatment; mean ±SD, n=22.
Data set [11] in a line: Clinical trial: plasma pemirolast concentration by LC-MS/MS. The conditions noted are these: human, 40 and 400 mg single oral doses, asthma patients. Type of data set: in vivo. Here is the method: All doses were administered 3 hours before initiation of the mannitol challenge test to ensure peak plasma concentrations of pemirolast when the mannitol challenge was performed (blood samples for analysing plasma concentrations of pemirolast were collected 3 hours after drug administration). All laboratory pharmacokinetic analyses were performed by Clinical Pharmacology, Karolinska University Hospital, Stockholm, Sweden. Briefly, the concentration of pemirolast in human plasma was determined by solid phase extraction and liquid chromatography followed by tandem mass spectrometric detection (LC-MS/MS). The analytical method, utilizing a 200 μL sample aliquot, has a calibration range of 4.00-4000 ng/mL, with a lower limit of quantification (LLOQ) set at 4.00 ng/mL.

[12] abbreviates: 10 mg pemirolast potassium (8.5 mg free acid) oral b.i.d.
[13] abbreviates: 30 mg pemirolast potassium (25.5 mg free acid) oral b.i.d.
[14] abbreviates: 50 mg pemirolast potassium (42.5 mg free acid) oral b.i.d.

Sequence of hERG potassium channel (Q12809 whole entry): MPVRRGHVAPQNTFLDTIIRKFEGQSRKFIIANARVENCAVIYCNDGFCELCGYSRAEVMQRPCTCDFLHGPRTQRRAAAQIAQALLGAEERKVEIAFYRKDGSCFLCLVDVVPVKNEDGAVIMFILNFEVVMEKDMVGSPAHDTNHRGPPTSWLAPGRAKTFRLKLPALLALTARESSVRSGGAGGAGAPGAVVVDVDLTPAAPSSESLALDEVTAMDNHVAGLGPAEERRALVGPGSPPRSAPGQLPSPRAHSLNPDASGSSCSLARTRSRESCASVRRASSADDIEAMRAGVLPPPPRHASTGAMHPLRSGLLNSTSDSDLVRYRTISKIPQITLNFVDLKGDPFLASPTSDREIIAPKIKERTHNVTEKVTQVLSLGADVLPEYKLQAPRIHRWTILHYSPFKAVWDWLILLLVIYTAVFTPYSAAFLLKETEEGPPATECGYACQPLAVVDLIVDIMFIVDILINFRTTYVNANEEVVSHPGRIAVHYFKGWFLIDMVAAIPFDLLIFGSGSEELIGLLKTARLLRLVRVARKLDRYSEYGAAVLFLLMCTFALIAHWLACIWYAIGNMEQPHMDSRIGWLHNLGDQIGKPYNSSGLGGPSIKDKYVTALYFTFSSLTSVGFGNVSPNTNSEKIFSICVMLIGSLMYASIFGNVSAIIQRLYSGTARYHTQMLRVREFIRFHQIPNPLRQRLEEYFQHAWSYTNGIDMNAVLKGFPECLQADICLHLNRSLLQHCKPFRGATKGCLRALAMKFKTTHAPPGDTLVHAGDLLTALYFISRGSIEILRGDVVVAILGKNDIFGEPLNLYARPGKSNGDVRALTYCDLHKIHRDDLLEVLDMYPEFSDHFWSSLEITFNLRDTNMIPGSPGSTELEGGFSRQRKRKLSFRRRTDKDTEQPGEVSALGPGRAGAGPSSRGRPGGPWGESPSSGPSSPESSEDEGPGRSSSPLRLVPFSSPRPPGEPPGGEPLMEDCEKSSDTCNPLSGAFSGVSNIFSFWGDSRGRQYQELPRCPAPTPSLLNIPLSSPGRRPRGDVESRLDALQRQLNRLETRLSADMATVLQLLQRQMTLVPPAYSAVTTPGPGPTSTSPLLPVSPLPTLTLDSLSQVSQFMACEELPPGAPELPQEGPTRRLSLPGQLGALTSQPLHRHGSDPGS

In the case of `Cc1cccn2c(=O)c(-c3nnn[nH]3)cnc12` [pemirolast potassium], the Cmax – broadly, the maximum level reached in the sampled fluid or tissue – was 730 ng/mL in [1] (setting [12]); 2040 ng/mL in [1] (setting [13]); 3420 ng/mL in data set [1] (setting [14]); 150000 ng/mL in [4] (female dogs (n = 3)); 168000 ng/mL in data set [4] (male dogs (n = 3)). Further, the “Decrease of hERG tail current amplitude” value in data set [2] (2.7 μg/mL) is on record as 5.4%; in [2] (8 μg/mL), 10.2%; in data set [2] (26.6 μg/mL) it was 14.1%; in [2] (79.9 μg/mL), 19.0%. Further, the Safe chronic dose in data set [3] turned out to be 75 mg/kg daily.
`Cc1cccn2c(=O)c(-c3nnn[nH]3)cnc12` [pemirolast]: the “Mannitol PD15” value in [5] (3 hour pre-treatment, single oral dose, asthma patients) is “increased”. The “Mannitol dose tolerated (PD15) at the placebo visit; reduction in AHR/BHR” value in data set [5] (single 40 mg oral dose before the placebo treatment) is “not seen”; in data set [5] (single 400 mg oral dose at least 3 days before placebo/mannitol), “tolerated a much higher dose of mannitol”. For the same compound, the “Urinary levels of the PGD2 biomarker (11β-PGF2α), 40 mg versus 400 mg” value in data set [6] is reported as “did not differ”. The Safety and tolerability result in data set [7] (80, 200 and 320 mg b.i.d. for three and a half days) is “safe and well-tolerated”. Besides, the highest concentration (Cmax) in [7] (80 mg b.i.d. for three and a half days) is 8840 ng/mL; in data set [7] (200 mg b.i.d. for three and a half days), 32500 ng/mL; in data set [7] (320 mg b.i.d. for three and a half days) it was 51000 ng/mL. For the same compound, the “Cmax, mean” value in [1] (setting [12]) is 730 ng/mL; in data set [1] (setting [13]), 2040 ng/mL; in data set [1] (setting [14]) it was 3420 ng/mL. Moreover, the “Predicted Cmax” value was 10680 ng/mL in data set [1] (predicted for 125 mg, linear extrapolation from 8.5 mg multiple dose); 9980 ng/mL in data set [1] (predicted for 125 mg, linear extrapolation from 25.5 mg multiple dose); 10070 ng/mL in [1] (predicted for 125 mg, linear extrapolation from 42.5 mg multiple dose); 17080 ng/mL in data set [1] (predicted for 200 mg, linear extrapolation from 8.5 mg multiple dose); 15980 ng/mL in data set [1] (predicted for 200 mg, linear extrapolation from 25.5 mg multiple dose); 16120 ng/mL in [1] (predicted for 200 mg, linear extrapolation from 42.5 mg multiple dose). The “Predicted Cmax” value in data set [1] (predicted for 400 mg, linear extrapolation from 8.5 mg multiple dose) was 34160 ng/mL; in data set [1] (predicted for 400 mg, linear extrapolation from 25.5 mg multiple dose) it was 31950 ng/mL; in data set [1] (predicted for 400 mg, linear extrapolation from 42.5 mg multiple dose) it was 32230 ng/mL. Moreover, in data set [8], the “Adverse events, vital signs, physical examination, laboratory tests” value is “no serious adverse events”. Further, in data set [9], the “Effect on airway or bronchial hyperresponsiveness” value is reported as “no effect whatsoever”. The compound also displayed an FEV1 in [10] of 3.55 ± 0.84 L. Besides, the half-life (usually the time in which the quantity being followed falls by half) in data set [11] was 4 to 7 h.
